Common to all, as to test: AK assay 384-well format, Prestwick library screening
One assay deals with P. aeruginosa. The format is cell-based, Pseudomonas aeruginosa. As to conditions: for fold induction at 50 µM: Pseudomonas aeruginosa, 3 h.
The test system of another assay is E. faecium. The format is cell-based, Enterococcus faecium. Conditions: for fold induction at 50 µM: Enterococcus faecium, 3 h.
Assay [1] has as its system S. aureus strain USA300-0114. The format is cell-based, Staphylococcus aureus. As to conditions: for fold induction at 50 µM: Staphylococcus aureus, USA300, 3 h.
In assay [2] the test system is A. baumannii strain 98-37-09. The format is cell-based, Acinetobacter baumannii. Conditions: for fold induction at 50 µM: Acinetobacter baumannii, 983709, 3 h.
A further assay concerns E. coli. The format is cell-based, Escherichia coli. Conditions: for fold induction at 50 µM: Escherichia coli, 3 h.
A further assay deals with K. pneumoniae. The format is cell-based, Klebsiella pneumoniae. Conditions: for fold induction at 50 µM: Klebsiella pneumoniae, 3 h.
Another assay has as its system E. cloacae. The format is cell-based, Enterobacter cloacae. As to conditions: for fold induction at 50 µM: Enterobacter cloacae, 3 h.
Setting [3] is: read-out: AK-based Prestwick Library Screening Results, E. coli (fold increase in extracellular AK activity).
The mark [4] stands for this setting: 50 μM final drug concentration, cutoff for positive-scoring molecules 3-fold increase, read-out: AK-based Prestwick Library Screening Results, P. aeruginosa (fold increase in extracellular AK activity).
Setting [5] is: 50 μM final drug concentration, cutoff for positive-scoring molecules 3-fold increase, read-out: AK-based Prestwick Library Screening Results, E. faecium (fold increase in extracellular AK activity).
The mark [6] stands for this setting: 50 μM final drug concentration, cutoff for positive-scoring molecules 3-fold increase, read-out: AK-based Prestwick Library Screening Results, S. aureus (fold increase in extracellular AK activity).
Setting [7] is: 50 μM final drug concentration, cutoff for positive-scoring molecules 3-fold increase, read-out: AK-based Prestwick Library Screening Results, A. baumannii (fold increase in extracellular AK activity).
Setting [8] is: 50 μM final drug concentration, cutoff for positive-scoring molecules 3-fold increase, read-out: AK-based Prestwick Library Screening Results, E. coli (fold increase in extracellular AK activity).
Setting [9] is: 50 μM final drug concentration, cutoff for positive-scoring molecules 3-fold increase, read-out: AK-based Prestwick Library Screening Results, K. pneumoniae (fold increase in extracellular AK activity).
The mark [10] stands for this setting: 50 μM final drug concentration, cutoff for positive-scoring molecules 3-fold increase, read-out: AK-based Prestwick Library Screening Results, E. cloacae (fold increase in extracellular AK activity).
[11] abbreviates: 50 μM final drug concentration, 384-well format, cutoff for positive-scoring molecules 3-fold increase, read-out: AK-based Prestwick Library Screening Results, P. aeruginosa (increase in extracellular AK activity).
The mark [12] stands for this setting: 50 μM final drug concentration, 384-well format, cutoff for positive-scoring molecules 3-fold increase, read-out: AK-based Prestwick Library Screening Results, E. faecium (increase in extracellular AK activity).
Where [13] appears, read: 50 μM final drug concentration, 384-well format, cutoff for positive-scoring molecules 3-fold increase, read-out: AK-based Prestwick Library Screening Results, S. aureus (increase in extracellular AK activity).
The mark [14] stands for this setting: 50 μM final drug concentration, 384-well format, cutoff for positive-scoring molecules 3-fold increase, read-out: AK-based Prestwick Library Screening Results, A. baumannii (increase in extracellular AK activity).
The mark [15] stands for this setting: 50 μM final drug concentration, 384-well format, cutoff for positive-scoring molecules 3-fold increase, read-out: AK-based Prestwick Library Screening Results, E. coli (increase in extracellular AK activity).
[16] abbreviates: 50 μM final drug concentration, 384-well format, cutoff for positive-scoring molecules 3-fold increase, read-out: AK-based Prestwick Library Screening Results, K. pneumoniae (increase in extracellular AK activity).
Setting [17] is: 50 μM final drug concentration, 384-well format, cutoff for positive-scoring molecules 3-fold increase, read-out: AK-based Prestwick Library Screening Results, E. cloacae (increase in extracellular AK activity).
Where [18] appears, read: 50 μM final drug concentration, planktonic, […].

Structures can show the parent of a compound that is named as a salt. Where two headings read alike, the source gives them in different places.

`C[n+]1ccccc1/C=N/O` [Pralidoxime chloride]: the fold induction at 50 µM came to 1.2 in the assay with P. aeruginosa (read-out: AK-based Prestwick Library Screening Results, P. aeruginosa (fold increase in extracellular AK activity)); 1 in the assay with E. faecium (read-out: AK-based Prestwick Library Screening Results, E. faecium (fold increase in extracellular AK activity)); 1.3 in assay [1] (read-out: AK-based Prestwick Library Screening Results, S. aureus (fold increase in extracellular AK activity)); 1.4 in assay [2] (read-out: AK-based Prestwick Library Screening Results, A. baumannii (fold increase in extracellular AK activity)); 1.3 in the assay on E. coli (setting [3]); 1 with K. pneumoniae (read-out: AK-based Prestwick Library Screening Results, K. pneumoniae (fold increase in extracellular AK activity)). For the same compound, the fold induction at 50 µM with E. cloacae (read-out: AK-based Prestwick Library Screening Results, E. cloacae (fold increase in extracellular AK activity)) was 1.5.

For `CCCCOc1ccc(OCCCN2CCOCC2)cc1` [Pramoxine hydrochloride], the fold induction at 50 µM with P. aeruginosa (setting [4]) came to 1.2; in the assay with E. faecium (setting [5]), 1; in assay [1] (setting [6]) it was 1.3; in assay [2] (setting [7]), 1.1; with E. coli (setting [8]), 1.1; in the assay on K. pneumoniae (setting [9]) it was 1.1. For the same compound, in the assay on E. cloacae (setting [10]), the fold induction at 50 µM amounted to 1.5.

Regarding `O=C(C1CCCCC1)N1CC(=O)N2CCc3ccccc3C2C1` (centres unmarked) [Praziquantel], the fold induction at 50 µM worked out at 0.6 in the assay with P. aeruginosa (setting [11]); 1 with E. faecium (setting [12]); 0.8 in assay [1] (setting [13]); 0.7 in assay [2] (setting [14]); 0.9 in the assay on E. coli (setting [15]); 0.6 with K. pneumoniae (setting [16]). The fold induction at 50 µM in the assay on E. cloacae (setting [17]) was determined as 0.7.

Take `CCOC(=O)O[C@]1(C(=O)COC(=O)CC)CC[C@H]2[C@@H]3CCC4=CC(=O)C=C[C@]4(C)[C@H]3[C@@H](O)C[C@@]21C` [Prednicarbate]: the fold induction at 50 µM with P. aeruginosa (setting [4]) is 0.4; with E. faecium (setting [5]), 0.9; in assay [1] (setting [6]), 0.4; in assay [2] (setting [7]), 0.4; in the assay with E. coli (setting [8]) it was 0.4; in the assay with K. pneumoniae (setting [9]), 0.5. For the same compound, the fold induction at 50 µM in the assay with E. cloacae (setting [10]) was determined as 0.3.

Take `C[C@]12C=CC(=O)C=C1CC[C@@H]1[C@@H]2[C@@H](O)C[C@@]2(C)[C@H]1CC[C@]2(O)C(=O)CO` [Prednisolone]: the fold induction at 50 µM with P. aeruginosa (setting [11]) came to 1; in the assay with E. faecium (setting [12]), 1; in assay [1] (setting [13]), 0.8; in assay [2] (setting [14]), 1; in the assay on E. coli (setting [15]) it was 1; with K. pneumoniae (setting [16]), 0.7. For the same compound, the fold induction at 50 µM in the assay with E. cloacae (setting [17]) was found to be 1.3.

`C[C@]12C=CC(=O)C=C1CC[C@@H]1[C@@H]2C(=O)C[C@@]2(C)[C@H]1CC[C@]2(O)C(=O)CO` [Prednisone]: the fold induction at 50 µM with P. aeruginosa (planktonic P. aeruginosa, 50 μM final drug concentration, 384-well, cutoff for positive-scoring molecules 3-fold increase, read-out: AK-based Prestwick Library Screening Results: P. aeruginosa (increase in extracellular AK activity)) is 0.9; with E. faecium (planktonic E. faecium, 50 μM final drug concentration, 384-well, cutoff for positive-scoring molecules 3-fold increase, read-out: AK-based Prestwick Library Screening Results: E. faecium (increase in extracellular AK activity)), 0.9; in assay [1] (planktonic S. aureus, 50 μM final drug concentration, 384-well, cutoff for positive-scoring molecules 3-fold increase, read-out: AK-based Prestwick Library Screening Results: S. aureus (increase in extracellular AK activity)), 1.1; in assay [2] (planktonic A. baumannii, 50 μM final drug concentration, 384-well, cutoff for positive-scoring molecules 3-fold increase, read-out: AK-based Prestwick Library Screening Results: A. baumannii (increase in extracellular AK activity)), 1.2; with E. coli (planktonic E. coli, 50 μM final drug concentration, 384-well, cutoff for positive-scoring molecules 3-fold increase, read-out: AK-based Prestwick Library Screening Results: E. coli (increase in extracellular AK activity)), 1.2; in the assay on K. pneumoniae (planktonic K. pneumoniae, 50 μM final drug concentration, 384-well, cutoff for positive-scoring molecules 3-fold increase, read-out: AK-based Prestwick Library Screening Results: K. pneumoniae (increase in extracellular AK activity)), 0.9. In addition, the fold induction at 50 µM with E. cloacae (planktonic E. cloacae, 50 μM final drug concentration, 384-well, cutoff for positive-scoring molecules 3-fold increase, read-out: AK-based Prestwick Library Screening Results: E. cloacae (increase in extracellular AK activity)) amounted to 1.4.

As to `CC(=O)[C@H]1CC[C@H]2[C@@H]3CC=C4C[C@@H](O)CC[C@]4(C)[C@H]3CC[C@]12C` [Pregnenolone], the “AK-based Prestwick Library Screening Results, P. aeruginosa (fold increase in extracellular AK activity)” value in the assay with P. aeruginosa (setting [18]) came to 1.1. Also, the “AK-based Prestwick Library Screening Results, E. faecium (fold increase in extracellular AK activity)” value with E. faecium (setting [18]) is listed as 1.1. Also, the “AK-based Prestwick Library Screening Results, S. aureus (fold increase in extracellular AK activity)” value in assay [1] (setting [18]) stood at 1.1. Further, in assay [2] (setting [18]), the “AK-based Prestwick Library Screening Results, A. baumannii (fold increase in extracellular AK activity)” value was 1.3. Besides, the “AK-based Prestwick Library Screening Results, E. coli (fold increase in extracellular AK activity)” value with E. coli (setting [18]) came to 1.4. Besides, the “AK-based Prestwick Library Screening Results, K. pneumoniae (fold increase in extracellular AK activity)” value with K. pneumoniae (setting [18]) was 1.1. Further, the “AK-based Prestwick Library Screening Results, E. cloacae (fold increase in extracellular AK activity)” value in the assay with E. cloacae (setting [18]) is 1.5.

Regarding `CCCNC(C)C(=O)Nc1ccccc1C` (centres unmarked) [Prilocaine hydrochloride], the fold induction at 50 µM in the assay on P. aeruginosa (setting [11]) came to 0.9; in the assay on E. faecium (setting [12]), 0.9; in assay [1] (setting [13]), 0.8; in assay [2] (setting [14]) it was 0.9; with E. coli (setting [15]) it was 0.9; in the assay with K. pneumoniae (setting [16]) it was 0.7. Further, the fold induction at 50 µM in the assay on E. cloacae (setting [17]) came out at 1.3.

Take `CCC1(c2ccccc2)C(=O)NCNC1=O` [Primidone]: the fold induction at 50 µM turned out to be 1.2 in the assay on P. aeruginosa (setting [4]); 0.9 in the assay with E. faecium (setting [5]); 1.3 in assay [1] (setting [6]); 1.2 in assay [2] (setting [7]); 1 in the assay on E. coli (setting [3]); 0.9 with K. pneumoniae (setting [9]). Besides, the fold induction at 50 µM in the assay on E. cloacae (setting [10]) came out at 1.8.

`CCCC(C(=O)OCCN(CC)CC)(c1ccccc1)c1ccccc1` [Proadifen hydrochloride]: the fold induction at 50 µM with P. aeruginosa (setting [4]) is 1.1; with E. faecium (setting [5]), 1.1; in assay [1] (setting [6]), 0.8; in assay [2] (setting [7]), 1.1; with E. coli (setting [8]), 1.2; with K. pneumoniae (setting [9]), 0.8. The fold induction at 50 µM in the assay with E. cloacae (setting [10]) was 1.7.

As to `CCCN(CCC)S(=O)(=O)c1ccc(C(=O)O)cc1` [Probenecid], the fold induction at 50 µM in the assay with P. aeruginosa (50 μM final drug concentration, planktonic, cutoff for positive 3-fold increase, read-out: AK-based Prestwick Library Screening Results, P. aeruginosa (fold increase in extracellular AK activity)) was 1.2; in the assay on E. faecium (50 μM final drug concentration, planktonic, cutoff for positive 3-fold increase, read-out: AK-based Prestwick Library Screening Results, E. faecium (fold increase in extracellular AK activity)), 1; in assay [1] (50 μM final drug concentration, planktonic, cutoff for positive 3-fold increase, read-out: AK-based Prestwick Library Screening Results, S. aureus (fold increase in extracellular AK activity)), 1; in assay [2] (50 μM final drug concentration, planktonic, cutoff for positive 3-fold increase, read-out: AK-based Prestwick Library Screening Results, A. baumannii (fold increase in extracellular AK activity)) it was 1.3; with E. coli (50 μM final drug concentration, planktonic, cutoff for positive 3-fold increase, read-out: AK-based Prestwick Library Screening Results, E. coli (fold increase in extracellular AK activity)), 1.4; in the assay on K. pneumoniae (50 μM final drug concentration, planktonic, cutoff for positive 3-fold increase, read-out: AK-based Prestwick Library Screening Results, K. pneumoniae (fold increase in extracellular AK activity)), 1.1. Moreover, the fold induction at 50 µM with E. cloacae (50 μM final drug concentration, planktonic, cutoff for positive 3-fold increase, read-out: AK-based Prestwick Library Screening Results, E. cloacae (fold increase in extracellular AK activity)) was 1.4.

These data come from US10004701B2, “Methods and compositions for treating infection” (UNIVERSITY OF ROCHESTER, priority 2012, dated 2018).
